Data set [1] has as its system Mannheimia haemolytica. To be noted: Mannheimia haemolytica reference strain; cited from earlier work.
Data set [2] relates to Histophilus somni. To be noted: Histophilus somni reference strain; cited from earlier work.
Data set [3] in a line: Tests of equivalence of bioavailability: plasma pharmacokinetic parameters after subcutaneous injection. To be noted: both sexes, bovine (cattle), sc. Format: in vivo, bovines. Here is the method: 24 young male and female bovines aged 11 months and with an average weight of 220 kg are treated individually with 1 subcutaneous injection of 40 mg/kg of florfenicol (Nuflor 450®—Merck, 450 mg of florfenicol/mL). Blood samples are taken regularly during the 7 days following this injection. This is followed by a wash-out period of 20 days. The animals then receive a subcutaneous injection of 0.5 mg/kg meloxicam (Metacam®, Boehringer Ingelheim, 5 mg of meloxicam/mL). Blood samples are taken regularly during the 7 days following this injection. This is followed by a new wash-out period of 20 days. […] Blood samples are taken regularly during the 7 days following this injection. The blood samples obtained during this treatment campaign make it possible to evaluate the pharmacokinetic parameters (Cmax and AUC0-t) and a pharmacological parameter (useful life of the antibiotic) by conventional methods known by a person skilled in the art.

Data set [4] concerns Mannheimia haemolytica. Description: Useful life of the antibiotic (time plasma concentration is above MIC90). To be noted: time plasma florfenicol is above MIC90 1 μg/mL for Mannheimia haemolytica; bovines, subcutaneous. Format: in vivo. On the procedure:
(§1) Blood samples are taken regularly during the 7 days following this injection. This is followed by a wash-out period of 20 days. The animals then receive a subcutaneous injection of 0.5 mg/kg meloxicam (Metacam®, Boehringer Ingelheim, 5 mg of meloxicam/mL). Blood samples are taken regularly during the 7 days following this injection. This is followed by a new wash-out period of 20 days. […] Blood samples are taken regularly during the 7 days following this injection. […] The useful life of an antibiotic is the time (in hours) during which the plasma concentration of a given antibiotic is above its MIC90 for the 3 representative microbes Mannheimia haemolytica, Histophilus somni, Pasteurella multocida.

The test system of data set [5] is Histophilus somni. The data set is described as above. To be noted: time plasma florfenicol is above MIC90 0.2 μg/mL for Histophilus somni; bovines, subcutaneous. It is filed as in vivo. Here is the method:
as §1

The subject of data set [6] is Pasteurella multocida. The data set is described as above. Format: in vivo. To be noted: time plasma florfenicol is above MIC90 0.5 μg/mL for Pasteurella multocida; bovines, subcutaneous. Here is the method: as §1
Data set [7] deals with Pasteurella multocida. To be noted: Pasteurella multocida reference strain; cited from earlier work.

The source of these data is US20170304450A1, “PARENTERAL COMPOSITIONS AND USES THEREOF” (CEVA SANTE ANIMALE, priority 2014, published 2017).

Each structure is given as a SMILES string. Read-outs that look alike come from different tables or passages of the source.

One may read the Cmax as the maximum level reached in the sampled fluid or tissue.

As for `CS(=O)(=O)c1ccc([C@@H](O)[C@@H](CF)NC(=O)C(Cl)Cl)cc1` [Florfenicol, florfenicol], the “reference MIC90” value is 1 µg/mL with Mannheimia haemolytica [1], 0.2 µg/mL in the data set on Histophilus somni [2] and 0.5 µg/mL with Pasteurella multocida [7]. The AUC(0-t) in data set [3] (in vivo, 40 mg/kg) was determined as 196 ± 45 µg·h/mL. Further, the Cmax in data set [3] (in vivo, 40 mg/kg) is 3500 ± 1040 ng/mL. Further, the Calculated antibiotic life is 66.44 ± 20.65 h in the data set on Mannheimia haemolytica [4], 167.78 ± 0.13 h in the data set on Histophilus somni [5] and 132.03 ± 27.22 h in the data set on Pasteurella multocida [6].
With `Cc1cnc(NC(=O)C2=C(O)c3ccccc3S(=O)(=O)N2C)s1` [Meloxicam, meloxicam], the AUC(0-t) in data set [3] (plasma, 0.5 mg/kg, read-out: AUC0-t of meloxicam in plasma) is 40.6 ± 7.12 µg·h/mL. Moreover, the Cmax in data set [3] (plasma, 0.5 mg/kg, read-out: Cmax of meloxicam in plasma) is 2240 ± 357 ng/mL.
